A word on the inhibition: it is the percentage by which the read-out fell short of the control.

Assay [1] deals with mortal activity of arachidonic acid in mouse. Description: Suppression of mortal activity of arachidonic acid in mouse. The assay is classed as in vivo. Conditions: 300 mg/kg oral, 1 hour before arachidonic acid 60 mg/kg i.v., male JCL:ICR mice, read-out: Number of survival mice/Total number of mice (converted). How it is done:
Male mice (four weeks old, JCL:ICR) were used in this experimental. Quinone derivatives were suspended with arabin to administrate per OS. After one hour of the oral administration at a dose of 300 mg/kg of a quinone derivative, an aqueous solution of arachidonic acid (20 mg/ml, pH 8.8) was intravenously administrated at dose of 60 mg/kg of arachidonic acid from mouse tail vein. The suppressive effects were shown in Table 10 by the ratio of the number of survival mice to the total number of mice administrated the test compound.

Assay [2] relates to SHR (spontaneously hypertensive rats). Description: Blood-pressure reducing action in SHR (spontaneously hypertensive rats). The class given is in vivo, rat. The note with it: oral, L-methyldopa 40 mg/kg, test compound equimolar amount. How it is done:
The blood-pressure reducing action of the compounds obtained in the above-mentioned Examples was confirmed with the use of SHR (spontaneously hypertensive rats) in accordance with the method of Watson and Ludden (L. S. Watson & C. T. Ludden in "New Antihypertensive Drugs", A. Scriabin and C. S. Sweet, Ed., Spectrum Publications, New York, 1976, page 87). As a control compound, L-methyldopa was orally administered in a dose of 40 mg/kg, while an equimolar amount of a test compound was orally given, to examine the effect. Results are shown in Table 8, where the marks, (+++), (++), (+) and (±), indicate the blood-pressure reducing actions of 31 to 40 mmHg, 21 to 30 mmHg, 11 to 20 mmHg and not more than 10 mmHg, respectively.

Assay [3] relates to SRS-A (slow reacting substance of anaphylaxis) production and release. In words: Inhibitory effect on SRS-A (slow reacting substance of anaphylaxis) production and release in sensitised guinea-pig lung fragments. The class given is cell-based. The note with it: guinea-pig lung fragments sensitised with egg albumin. The protocol: The inhibitory effect on SRS-A production and release was examined by the method of Orange and Moore (J. Immunol., 116, 392-397, 1976). Quinone derivatives were added to guinea-pig lung fragments sensitised with egg albumin as the antigen, and the amount of SRS-A produced and released as a consequence was assayed by the method of Brocklehust (J. Physiol., 151, 416-435, 1960).

Turning to `COC1=C(OC)C(=O)C(C/C=C(\C)CC/C=C(\C)CCC(N)=O)=C(C)C1=O` [Ia-7], in assay [1], the responders at 300 mg/kg was 40%. `COC1=C(OC)C(=O)C(C/C=C(\C)CC/C=C(\C)CC/C=C(\C)CC/C=C(\C)CC/C=C(\C)CC/C=C(\C)CC/C=C(\C)CC/C=C(\C)CC/C=C(\C)CC/C=C(\C)CCC(=O)O)=C(C)C1=O` [IIa-15]: the Blood-pressure reducing action result in assay [2] was “++ (21 to 30 mmHg)”. In the case of `COC1=C(OC)C(=O)C(C/C=C(\C)CC/C=C(\C)CC/C=C(\C)CC/C=C(\C)CC/C=C(\C)CC/C=C(\C)CC/C=C(\C)CCC(=O)O)=C(C)C1=O` [IIa-14], the Blood-pressure reducing action entry in assay [2] was “++ (21 to 30 mmHg)”. Same read-out and setting: for `CC1=C(C/C=C(\C)CC/C=C(\C)CC/C=C(\C)CC/C=C(\C)CCC(=O)O)C(=O)c2ccccc2C1=O` [IIa-5] the value was “+++ (31 to 40 mmHg)”. For `COC1=C(OC)C(=O)C(C/C=C(\C)CCC(=O)N2CCN(C/C=C(\C)CC/C=C(\C)CCC=C(C)C)CC2)=C(C)C1=O` [Ia-3], in assay [1], the responders at 300 mg/kg was 40%. Regarding `NC1=NN(c2cccc(C(F)(F)F)c2)CC1` [BW-755c, reference compound], the inhibition at 10 µM in assay [3] (Cavia porcellus, 10 μM) was found to be 4.7 ± 3.7%. Besides, the inhibition at 100 µM in assay [3] (Cavia porcellus, 100 μM) came to 15.3 ± 4.3%. As to `CC1=C(C/C=C(\C)CC/C=C(\C)CCC(=O)O)C(=O)c2ccccc2C1=O` [IIa-3], the Blood-pressure reducing action result in assay [2] is listed as “+++ (31 to 40 mmHg)”. In addition, in assay [1], the responders at 300 mg/kg is 40%. The inhibition at 10 µM in assay [3] (Cavia porcellus, 10 μM) stood at 38.6 ± 4.3%. For `COC1=C(OC)C(=O)C(C/C=C(\C)CC/C=C(\C)CC/C=C(\C)CCC(=O)O)=C(C)C1=O` [IIa-12], the Blood-pressure reducing action result in assay [2] is listed as “++ (21 to 30 mmHg)”. Also, the inhibition at 1 µM in assay [3] (Cavia porcellus) is 21.8 ± 8.5%. In the case of `CC(C)=CCC/C(C)=C/CC/C(C)=C/COC(=O)CC/C(C)=C/CC/C(C)=C/CC1=C(C)C(=O)c2ccccc2C1=O` [IIa-21], the Blood-pressure reducing action entry in assay [2] is “++ (21 to 30 mmHg)”. Turning to `COc1cc(CN2CCN(C(=O)CC/C(C)=C/CC/C(C)=C/CC/C(C)=C/CC3=C(C)C(=O)c4ccccc4C3=O)CC2)cc(OC)c1OC` [Ia-28], the responders at 300 mg/kg in assay [1] was 100%. For `C[C@](N)(Cc1ccc(O)c(O)c1)C(=O)O` [L-Methyldopa, reference compound], the Blood-pressure reducing action entry in assay [2] is recorded as “+++ (31 to 40 mmHg)”.

On to `CC(C)=CCC/C(C)=C/COC(=O)CC/C(C)=C/CC/C(C)=C/CC1=C(C)C(=O)c2ccccc2C1=O` [IIa-20], for which the Blood-pressure reducing action entry in assay [2] is “++ (21 to 30 mmHg)”.

For the compound `COC1=C(OC)C(=O)C(C/C=C(\C)CC/C=C(\C)CCC(=O)OC/C=C(\C)CCC=C(C)C)=C(C)C1=O` [IIa-19], the Blood-pressure reducing action result in assay [2] is listed as “++ (21 to 30 mmHg)”.

Consider “Sodium baikalein phosphate [BSP, reference compound]”, for which the “Inhibitory Effect on SRS-A Production (% inhibition of production and release)” value was determined as 18.7 ± 6.6% in assay [3] (10 μM) and 50.8 ± 10.7% in assay [3] (100 μM). In the case of `COC1=C(OC)C(=O)C(C/C=C(\C)CC/C=C(\C)CC/C=C(\C)CCC(=O)N2CCN(Cc3ccc4c(c3)OCO4)CC2)=C(C)C1=O` [Ia-11], the responders at 300 mg/kg in assay [1] is 80%. For the same compound, the inhibition at 1 µM in assay [3] (Cavia porcellus) was 15 ± 5.6%. With `CC1=C(C/C=C(\C)CC/C=C(\C)CC/C=C(\C)CCC(=O)O)C(=O)c2ccccc2C1=O` [IIa-4], the Blood-pressure reducing action result in assay [2] is given as “+++ (31 to 40 mmHg)”. For the same compound, the inhibition at 1 µM in assay [3] (Cavia porcellus) turned out to be 24.3 ± 4.2%.

For `CC1=C(C)C(=O)C(C/C=C(\C)CC/C=C(\C)CC/C=C(\C)CC/C=C(\C)CCC(=O)O)=C(C)C1=O` [IIa-9], in assay [2], the Blood-pressure reducing action entry is given as “++ (21 to 30 mmHg)”. For the compound `COC1=C(OC)C(=O)C(C/C=C(\C)CC/C=C(\C)CCC(=O)O)=C(C)C1=O` [IIa-10], the inhibition at 1 µM in assay [3] (Cavia porcellus) is 35 ± 6.3%.

For `COC1=C(OC)C(=O)C(C/C=C(\C)CC/C=C(\C)CC/C=C(\C)CC/C=C(\C)CCC(=O)O)=C(C)C1=O` [IIa-13], in assay [2], the Blood-pressure reducing action result is “++ (21 to 30 mmHg)”. As to `COC1=C(OC)C(=O)C(C/C=C(\C)CC/C=C(\C)CCC(=O)OC/C=C(\C)CC/C=C(\C)CCC=C(C)C)=C(C)C1=O` [IIa-16], the Blood-pressure reducing action entry in assay [2] is given as “++ (21 to 30 mmHg)”.

Consider `COC1=C(OC)C(=O)C(C/C=C(\C)CC/C=C(\C)CCC(=O)N2CCN(Cc3cc(OC)c(OC)c(OC)c3)CC2)=C(C)C1=O` [Ia-6], for which the responders at 300 mg/kg in assay [1] was 40%. The inhibition at 1 µM in assay [3] (Cavia porcellus) was found to be 26.8 ± 2.2%.

As for `COC1=C(OC)C(=O)C(C/C=C(\C)CC/C=C(\C)CCC(=O)N(C(=O)NC2CCCCC2)C2CCCCC2)=C(C)C1=O` [Ia-48], the responders at 300 mg/kg in assay [1] was 40%.

In the case of `CC1=C(C)C(=O)C(C/C=C(\C)CC/C=C(\C)CCC(=O)O)=C(C)C1=O` [IIa-7], in assay [3] (Cavia porcellus, 10 μM), the inhibition at 10 µM worked out at 40.2 ± 7.3%.

In the case of `COC1=C(OC)C(=O)C(C/C=C(\C)CC/C=C(\C)CCC(=O)N2CCOCC2)=C(C)C1=O` [Ia-9], the responders at 300 mg/kg in assay [1] was 40%.

Values taken from patent publication US4533554A, “Quinone derivatives and use” (Takeda Chemical Industries, Ltd., priority 1979, dated 1985).
